Literature values in US7960544B2, “Useful indole compounds” (Ironwood Pharmaceuticals, Inc., priority 2005, dated 2011).

Columns and labels:
[1] = tested on: prostaglandin synthesis
[2] = tested on: CCR3; conditions: cross-desensitization
[3] = biological target: DAO (Homo sapiens, UniProt P14920)
[4] = tested on: MCF-7 cells; conditions: up to 100 μM

Chain of DAO (P14920 whole entry): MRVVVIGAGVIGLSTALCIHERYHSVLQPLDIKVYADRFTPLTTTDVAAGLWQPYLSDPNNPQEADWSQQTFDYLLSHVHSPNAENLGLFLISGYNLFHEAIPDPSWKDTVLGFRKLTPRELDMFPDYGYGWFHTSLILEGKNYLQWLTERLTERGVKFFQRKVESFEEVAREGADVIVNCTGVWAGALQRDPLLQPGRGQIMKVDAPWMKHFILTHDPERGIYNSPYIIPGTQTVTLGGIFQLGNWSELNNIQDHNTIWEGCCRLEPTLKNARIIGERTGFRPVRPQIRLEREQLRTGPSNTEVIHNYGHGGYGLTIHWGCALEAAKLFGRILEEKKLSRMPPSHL

Cc1c(CC(=O)O)c2cc(O)ccc2n1C(=O)c1ccc(Cl)cc1 [desmethyl metabolite, (1-(4-chlorobenzoyl)-5-hydroxy-2-methyl-1H-indol-3-yl]acetic acid]
ability to inhibit prostaglandin synthesis [1]: has some ability to inhibit prostaglandin synthesis

COc1ccc2c(c1)c(CC(=O)O)c(C)n2C(=O)c1ccc(Cl)cc1 [indomethacin]
expression of CCR3, the receptor for eotaxin [2]: reduces expression of CCR3 | inhibition of DAO [3]: inhibitor of DAO

CCCCC/C=C\C/C=C\C/C=C\C/C=C\CCCC(=O)NCCO [anandamide]
cell viability (as assessed by trypan blue) [4]: No significant decrease in cell viability
